This note sets out measurements from patent US10238689B2, “Methods for combating bacterial infections by killing persister cells with mitomycin C and/or cisplatin” (THE PENN STATE RESEARCH FOUNDATION, priority 2015, dated 2019).

In experiment [1] the test system is P. aeruginosa PA14. Description: Minimum inhibitory concentration (MIC) assay. The experiment is classed as cell-based, Pseudomonas aeruginosa. The method, then: Minimum inhibitory concentration (MIC) assay. To determine the MICs of cisplatin for E. coli K-12, enterohemorrhagic E. coli (EHEC), S. aureus, and P. aeruginosa (PAO1 and PA14), freshly inoculated cultures (at least two independent cultures) in buffered LB (TSB for S. aureus) were incubated for 16 h with varying concentrations of cisplatin, and growth inhibition was assayed by the lack of turbidity.

Experiment [2] concerns S. aureus (methicillin sensitive). Description: Planktonic antibiotic killing assay. The experiment is classed as cell-based, Staphylococcus aureus. The following applies: rich medium (TSB), MMC 10 μg/mL, ciprofloxacin 5 μg/mL, 3 h. The procedure:
In order to obtain exponential and mid-stationary phase cultures in LB, buffered LB or TSB, overnight cultures (16 h) were diluted 1:1000 in fresh medium and grown to the desired turbidity (i.e., a turbidity below 2 at 600 nm for exponential phase and a turbidity of 3 to 4 at 600 nm for mid-stationary phase). Late-stationary phase cultures in LB or buffered LB were obtained by growing overnight cultures (16 h). In order to obtain exponential and late-stationary phase cultures in M9-glucose, overnight cultures (16 h) were washed diluted 1:1000 in M9-glucose and grown for the desired period of time (i.e., a turbidity of 0.4 at 600 nm for exponential phase and 24 h of growth for late-stationary phase). Anaerobically grown cultures were maintained with ˜20% CO2, ˜79% N2, and ˜1% H2. In order to obtain rifampicin-induced persister cultures in buffered LB, overnight cultures (16 h) were diluted 1:1000 in fresh medium and grown to a turbidity of 0.8 at 600 nm. Cultures were exposed to rifampicin (100 μg/mL) for 30 min, centrifuged, and resuspended in fresh medium to remove the rifampicin.

The test system of experiment [3] is S. aureus biofilm cultures. The experiment is described as follows: Biofilm antibiotic killing assay. In kind it is cell-based, Staphylococcus aureus. The following applies: minimal medium (modified M9-glucose), 24 h treatment, MMC 10 μg/mL, ciprofloxacin 5 μg/mL.
In experiment [4] the test system is P. aeruginosa PA14. The experiment is described as follows: Persister cell assay of pathogens (stationary phase), cisplatin vs MMC. In kind it is cell-based, Pseudomonas aeruginosa. The following applies: M9-glucose, 3 h. The procedure: For the persister cell assay of the pathogens, stationary-phase cells were used. Cultures of EHEC, P. aeruginosa, and S. aureus were prepared by a 1:1000 dilution of overnight grown cultures (LB medium for EHEC and P. aeruginosa, TSB for S. aureus) into fresh buffered LB medium for EHEC, M9-glucose for P. aeruginosa, and TSB for S. aureus and re-growing the cells to a turbidity of 3 to 4 at 600 nm for EHEC and S. aureus and growing for 24 h for P. aeruginosa. […]
NaClO4 (0.1M) was used as a solvent control. The viability of the cells was determined before and after cisplatin and MMC treatment. At least two independent cultures of each strain were used in each experiment.

Experiment [5] concerns P. aeruginosa PA14 and ΔtpbA biofilm cells. The experiment is described as follows: Persister cell killing assay (biofilm cells). In kind it is cell-based, Pseudomonas aeruginosa. The following applies: 3 h, 5×MIC (cisplatin 250 μg/mL, MMC 10 μg/mL), limit of detection 100 cells/mL. The procedure: Persister cell killing assay (biofilm cells). […] Biofilm formation was assayed using the crystal violet staining method (Fletcher 1977) and was normalized by planktonic cell growth (turbidity at 620 nm) to account for any differences in growth rates. Data were averaged from 6 replicate wells using at least two independent cultures. […] NaClO4 (0.1M) was used as a solvent control for cisplatin. Cell viability in biofilms was assayed before and after the MMC and cisplatin treatments by removing supernatants (planktonic cells) from each well carefully, resuspending the biofilm in normal saline, and sonicating twice at 3W for 10 sec (Ueda and Wood 2009) to break apart the biofilm cells (due to the aggregative nature of P. aeruginosa ΔtpbA cells). Suspensions from multiple wells were combined to get an averaged sample. Then the cell suspensions were serially diluted in normal saline for a drop assay to check cell viability.

For a further experiment, the system named is pCA24N DNA. The experiment is described as follows: In vitro crosslinking of DNA and denaturing agarose gel electrophoresis. The experiment is classed as biochemical. As to conditions: cisplatin 200 μM 1.5 h and 3.5 h; MMC 500 μg/mL; denaturing gel. The method, then:
FIG. 10 provides data obtained from analysis of in vitro crosslinking of DNA with cisplatin and denaturing agarose gel electrophoresis. To produce the results shown in FIG. 10, pCA24N DNA (4518 bp) was in vitro crosslinked with cisplatin following a standard protocol. In brief, 2.2 μg of pCA24N DNA was linearized by HindIII digestion and cleaned using Wizard-SV gel and PCR clean-up system (Promega, Madison, Wis., USA). Linearized pCA24N was then treated with 200 μM (60 μg/mL) of cisplatin (Sigma-Aldrich, St. Louis, Mo., USA) for 1.5 h and 3.5 h at 37° C. The same amount of pCA24N DNA was also treated with an equivalent amount of 0.1M NaClO4 (solvent control for cisplatin) for 3.5 h at 37° C. Mitomycin C (MMC) was used as a positive control to compare types of crosslinking between cisplatin and MMC. For MMC, the same amount (2.2 μg) of pCA24N DNA was crosslinked essentially as in Example 1. In brief, linearized pCA24N DNA was treated with 500 μg/mL (1.5 mM) MMC or without MMC in 0.2 mM EDTA, 50 mM NaCl, and 5 mM Tris (pH 7.6) with Na2S2O4 added six times at 10 min intervals to reach a final concentration of 2.25 mM (1.5×molarity of MMC). The crosslinking reaction with MMC was performed anaerobically on ice and the reaction was stopped by exposure to air. […]

In the next experiment the test system is E. coli K-12 cells. Description: Test of DNA crosslinking compounds for antimicrobial activity. As to conditions: 100 μg/mL. The experiment is classed as cell-based, Escherichia coli. The procedure: Stocks of cisplatin (2 mg/mL, Sigma-Aldrich, St. Louis, Mo., USA) were prepared in 0.1M NaClO4 and MMC (0.5 mg/mL, Fisher Scientific, Pittsburgh, Pa., USA) was prepared in water. Stocks of busulfan (2 mg/mL, Cayman Chemical, Ann Arbor, Mich., USA), melphalan (2 mg/mL, Cayman Chemical), dynemicin A (5 mg/mL, AdooQ, Irvine, Calif., USA), and tirapazamine (0.5 mg/mL, Sigma-Aldrich) were prepared in dimethylsulfoxide, the stock of cyclophosphamide (0.5 mg/mL, Cayman Chemical) was prepared in water, and the stock of carmustine (214 mg/mL, Enzo Life Sciences, Farmingdale, N.Y., USA) was prepared in ethanol.
In this Example we tested seven other DNA crosslinking compounds: busulfan (100 μg/mL), carmustine (100 μg/mL) cisplatin (100 μg/mL), cyclophosphamide (100 μg/mL), dynemicin A (200 μg/mL), melphalan (100 μg/mL), and tirapazamine (10 μg/mL).

Setting [6] is: 1×MIC (cisplatin 50 μg/mL, MMC 2 μg/mL).
Setting [7] is: 5×MIC (cisplatin 250 μg/mL, MMC 10 μg/mL).

In brackets after ≈: the same amount, converted by molar mass. Entries after “also recorded” stand apart in the source; their conditions may differ.

Regarding `CO[C@@]12[C@H](COC(N)=O)C3=C(C(=O)C(C)=C(N)C3=O)N1C[C@@H]1N[C@@H]12` [MMC, mitomycin C], the “MIC (1×MIC)” value with P. aeruginosa PA14 [1] is 2 µg/mL (≈ 5.98 µM). Besides, the survival result in experiment [2] (exponential phase) is listed as “eradicating”; in experiment [2] (mid-stationary phase), “eradicating”; in experiment [3], “eradicating cells beyond the limit of detection”; in the experiment on P. aeruginosa PA14 [4] (setting [6]), 5±2%; with P. aeruginosa PA14 [4] (setting [7]), 0.0056±0.0004%. The “cell viability of biofilm cells” value in experiment [5] (PA14 biofilm) and in experiment [5] (ΔtpbA biofilm) was “could not eradicate” in each case. In the experiment on pCA24N DNA, the “type of DNA crosslinking in vitro” value is “crosslinks inter-strand DNA”.

On to `N.N.[Cl][Pt][Cl]` [cisplatin, cis-diamminodichloroplatinum(II)], for which the “MIC (1×MIC)” value with P. aeruginosa PA14 [1] amounted to 50 µg/mL. In addition, the antimicrobial activity entry in the experiment on E. coli K-12 cells is “exhibited antimicrobial activity”. Also, the survival result is on record as “completely eradicated” in the experiment with P. aeruginosa PA14 [4] (setting [6]) and “eradicated” in the experiment on P. aeruginosa PA14 [4] (setting [7]). The “cell viability of biofilm cells” value in experiment [5] (PA14 biofilm) and in experiment [5] (ΔtpbA biofilm) was “completely eradicated” in each case. For the same compound, the “type of DNA crosslinking in vitro” value with pCA24N DNA is recorded as “crosslinks the same strand of DNA; also recorded: crosslinks intra-strand DNA”.
